ChEMBL document CHEMBL4007481, “Synthesis and antibacterial activity of 3-benzylamide derivatives as FtsZ inhibitors” (Bioorg Med Chem Lett, 2017)
The source made the active and inactive calls. The rule behind the calls is not given here.

Columns and labels:
Aspergillus niger = experiment: Antifungal activity against Aspergillus niger ATCC 16404 at 100 ug per disc after 3 to 5 days by paper disc agar diffusion assay; assay type: functional
[1] = system: Mycolicibacterium smegmatis; experiment: Inhibition of FtsZ in Mycobacterium smegmatis ATCC 607 assessed as growth inhibition at 100 ug per disc after 18 to 24 hrs by paper disc agar diffusion assay
[2] = system: Bacillus subtilis subsp. spizizenii ATCC 6633 = JCM 2499; experiment: Inhibition of FtsZ in Bacillus subtilis ATCC 6633 assessed as ratio of diameter of zone inhibition of test compound to diameter of zone inhibition of tetracycline at 100 ug per disc after 18 to 24 hrs by paper disc agar diffusion assay
Klebsiella aerogenes = experiment: Inhibition of FtsZ in Klebsiella aerogenes ATCC 9621 assessed as growth inhibition at 100 ug per disc after 18 to 24 hrs by paper disc agar diffusion assay
Pseudomonas aeruginosa = experiment: Inhibition of FtsZ in Pseudomonas aeruginosa ATCC 9027 assessed as growth inhibition at 100 ug per disc after 18 to 24 hrs by paper disc agar diffusion assay
[3] = system: Escherichia coli ATCC 25922; experiment: Inhibition of FtsZ in Escherichia coli ATCC 25922 assessed as growth inhibition at 100 ug per disc after 18 to 24 hrs by paper disc agar diffusion assay
Candida albicans = experiment: Antifungal activity against Candida albicans ATCC 10231 at 100 ug per disc after 3 to 5 days by paper disc agar diffusion assay; assay type: functional
[4] = target: T1, Cell division protein FtsZ (Staphylococcus aureus) (UniProt P0A031); experiment: Inhibition of FtsZ in Staphylococcus aureus ATCC 6538P assessed as growth inhibition at 100 ug per disc after 18 to 24 hrs by paper disc agar diffusion assay
T1 sequence (whole entry): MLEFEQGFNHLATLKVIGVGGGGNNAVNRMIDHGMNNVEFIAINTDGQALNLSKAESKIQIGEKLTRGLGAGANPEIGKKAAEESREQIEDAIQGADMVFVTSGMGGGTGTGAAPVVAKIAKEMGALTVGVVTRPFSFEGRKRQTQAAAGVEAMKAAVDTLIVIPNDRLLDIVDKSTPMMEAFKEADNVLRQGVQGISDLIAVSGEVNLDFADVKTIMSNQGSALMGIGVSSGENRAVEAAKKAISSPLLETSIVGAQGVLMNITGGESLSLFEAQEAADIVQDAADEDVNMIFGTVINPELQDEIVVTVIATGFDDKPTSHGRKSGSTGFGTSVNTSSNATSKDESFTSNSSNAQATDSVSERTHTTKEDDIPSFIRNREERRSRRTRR

Klebsiella pneumoniae = experiment: Inhibition of FtsZ in Klebsiella pneumoniae ATCC 9621 assessed as growth inhibition at 100 ug per disc after 18 to 24 hrs by paper disc agar diffusion assay
[5] = system: Bacillus subtilis subsp. spizizenii ATCC 6633 = JCM 2499; experiment: Inhibition of FtsZ in Bacillus subtilis ATCC 6633 assessed as growth inhibition at 100 ug per disc after 18 to 24 hrs by paper disc agar diffusion assay
[6] = target: T1, Cell division protein FtsZ (Staphylococcus aureus); experiment: Inhibition of FtsZ in Staphylococcus aureus ATCC 6538P assessed as ratio of diameter of zone inhibition of test compound to diameter of zone inhibition of cephaloridine at 100 ug per disc after 18 to 24 hrs by paper disc agar diffusion assay
[7] = system: Mycolicibacterium smegmatis; experiment: Inhibition of FtsZ in Mycobacterium smegmatis ATCC 607 assessed as ratio of diameter of zone inhibition of test compound to diameter of zone inhibition of streptomycin at 100 ug per disc after 18 to 24 hrs by paper disc agar diffusion assay

Row | inhibition [1] | Ratio [2] | inhibition (Klebsiella aerogenes) | inhibition (Pseudomonas aeruginosa) | inhibition [3] | inhibition [4] | inhibition (Klebsiella pneumoniae) | inhibition [5] | Ratio [6] | Ratio [7] | SMILES | Activity (Aspergillus niger) | Activity (Candida albicans)
1 | inactive | 0.18 | inactive | inactive | inactive | inactive |  |  |  |  | NC(=O)c1c(F)ccc(OCC(=O)OCc2ccccc2)c1F | inactive | inactive
2 | inactive |  |  | inactive | inactive | inactive | inactive | inactive |  |  | NC(=O)c1c(F)ccc(OCCOC(=O)c2ccccc2)c1F | inactive | inactive
3 |  | 0.3 | inactive | inactive | inactive |  |  |  | 0.41 |  | NC(=O)c1c(F)ccc(OCCC(=O)Oc2ccccc2)c1F | inactive | inactive
4 |  | 0.18 | inactive | inactive | inactive |  |  |  | 0.44 | 0.62 | NC(=O)c1c(F)ccc(OCC(=O)OCCOc2ccc(F)cc2)c1F | inactive | inactive
5 | inactive | 0.25 | inactive | inactive | inactive |  |  |  | 0.1 |  | Cc1ccc(OCCOC(=O)COc2ccc(F)c(C(N)=O)c2F)cc1 | inactive | inactive
6 | inactive |  |  |  |  |  |  | inactive | 1.2 |  | NC(=O)c1c(F)ccc(OCc2nc3cc(Cl)cnc3s2)c1F |  | 
7 | inactive |  | inactive | inactive | inactive |  |  | inactive | 0.07 |  | NC(=O)c1c(F)ccc(OCCCOc2cccc3cccnc23)c1F | inactive | inactive
8 | inactive | 0.1 | inactive | inactive | inactive |  |  |  | 0.1 |  | NC(=O)c1c(F)ccc(OCC(=O)Nc2ccccc2)c1F | inactive | inactive
9 | inactive | 0.1 | inactive | inactive | inactive |  |  |  | 0.25 |  | NC(=O)c1c(F)ccc(OCCCOc2ccc(Cl)c3cccnc23)c1F | inactive | inactive
10 |  | 0.19 | inactive | inactive | inactive |  |  |  | 0.07 | 0.5 | NC(=O)c1c(F)ccc(OCC(=O)Oc2ccccc2)c1F | inactive | inactive
11 | inactive |  | inactive | inactive | inactive | inactive |  | inactive |  |  | NC(=O)c1c(F)ccc(OCCCOc2cccc3ccccc23)c1F | inactive | inactive
12 | inactive |  | inactive | inactive | inactive | inactive |  | inactive |  |  | Cc1ccc2cccc(OCCCOc3ccc(F)c(C(N)=O)c3F)c2n1 | inactive | inactive
13 |  | 0.15 | inactive | inactive | inactive | inactive |  |  |  | 0.19 | COc1ccc(OC(=O)COc2ccc(F)c(C(N)=O)c2F)cc1 | inactive | inactive
14 | inactive |  | inactive | inactive | inactive | inactive |  | inactive |  |  | NS(=O)(=O)c1c(F)ccc(OCc2nc3cc(Cl)cnc3s2)c1F | inactive | inactive
15 |  | 0.1 | inactive | inactive | inactive |  |  |  | 0.18 | 0.2 | NC(=O)c1c(F)ccc(OCCCOc2c(Cl)cc(Cl)c3cccnc23)c1F | inactive | inactive
16 | inactive | 0.15 | inactive | inactive | inactive |  |  |  | 0.22 |  | NC(=O)c1c(F)ccc(OCC(=O)OCCOc2ccc(Br)cc2)c1F | inactive | inactive
17 | inactive | 0.11 | inactive | inactive | inactive | inactive |  |  |  |  | N#Cc1ccc(OCCOC(=O)COc2ccc(F)c(C(N)=O)c2F)cc1 | inactive | inactive
18 |  | 0.51 | inactive | inactive | inactive | inactive |  |  |  | 0.37 | COc1ccc(OCCOC(=O)COc2ccc(F)c(C(N)=O)c2F)cc1 | inactive | inactive
19 | inactive |  | inactive | inactive | inactive | inactive |  | inactive |  |  | NC(=O)c1c(F)ccc(OCCCOc2ccc3ccccc3c2)c1F | inactive | inactive
20 |  | 0.3 | inactive | inactive | inactive |  |  |  | 0.25 | 0.07 | Cc1ccc(OC(=O)COc2ccc(F)c(C(N)=O)c2F)cc1 | inactive | inactive
21 | inactive |  | inactive | inactive | inactive | inactive |  | inactive |  |  | NS(=O)(=O)c1c(F)ccc(OCc2nc3cc(Cl)ccc3s2)c1F | inactive | inactive
22 |  | 0.18 | inactive | inactive | inactive |  |  |  | 0.18 | 0.36 | NC(=O)c1c(F)ccc(OCC(=O)OCCOc2ccccc2)c1F | inactive | inactive
23 | inactive |  |  | inactive | inactive | inactive | inactive | inactive |  |  | NC(=O)c1c(F)ccc(OCCCOC(=O)c2ccccc2)c1F | inactive | inactive
